According to patent US20070027178A1, “Substituted tetrahydro-1H-pyrido[4,3-b]indoles as serotonin receptors agonists and antagonists” (Bristol-Myers Squibb Company, priority 2005, published 2007):

Row | melting point | Compound
1 | 338 to 342 °C | Cc1cc(C(F)(F)F)c2[nH]c3c(c2c1)CNCC3.Cl
2 | 140 to 144 °C | COc1cc(C(F)(F)F)c2[nH]c3c(c2c1)CNCC3 [Example 23, 8-Methoxy-6-(trifluoromethyl)-2,3,4,5-tetrahydro-1H-pyrido [4,3-b]indole]
